Reference: patent publication US20120322060A1, “DIAGNOSIS AND MONITORING TREATMENT OF PSYCHIATRIC DISEASES WITH SPADIN AND RELATED METHODS” (CENTRE NATIONAL DE LE RECHERCHE SCIENTIFIQUE - CNRS -, priority 2011, published 2012)
Several values for one entry are separate records, joined by “and”; a condition that tells them apart may be missing. Identical values can stand only once. No end group written: not given here.

Legend:
[1] = tested on: mice; assay: Staircase test; type: in vivo, mouse; settings: spadin i.p. 10^-5 M, diazepam i.p. 0.5 mg/kg
Protocol: The apparatus comprised an enclosed staircase consisted of five identical steps (2.5 cm in height×11 cm in width×7.5 cm in length), each made of black plastic. The height of the walls was constant (12.5 cm above the stairs) along the entire length of the staircase. Each mouse was placed individually on the floor of the staircase with its back to the staircase. A step was considered climbed only if the mouse placed all four paws on it. Rearing was recorded when the mouse rose on its hind legs either on the step or against the wall. The number of steps ascended and the number of rearings made in a 3-min period were recorded. Results were expressed as ratio of rearing/step numbers.

[2] = tested on: dentate gyrus of the mouse hippocampus; assay: Hippocampal neurogenesis (BrdU / DCX labeling); type: in vivo
Protocol: Twenty-four hours after the injection of BrdU (120 mg per kg of body weight in a 300 μl bolus), mice were euthanized and transcardially perfused with 4% cold paraformaldehyde. Serial sections of the brains were cut (40 μm) throughout the entire hippocampus on a vibratome (Leica). Every sixth section throughout the hippocampus was processed for BrdU or doublecortin (DCX) immunohistochemistry, as previously described. For each immunodetection, slides were first incubated overnight at 4° C. with a mouse monoclonal anti-BrdU antibody (1:200; Becton-Dickinson) or a goat anti-DCX (1:400, Santa Cruz Laboratories). For chromogenic immunodetection, sections were then incubated for 1 hour in biotin-conjugated species-specific secondary antibodies (1:100; Vector Laboratories) followed by a peroxidase-avidin complex solution according to the manufacturer's protocol. The peroxidase activity of immune complexes was visualized with DAB staining using the VectaStain ABC kit (Vector Laboratories). For fluorescent double-labeling, performed to determine the cell phenotype, sections were incubated overnight at 4° C. with anti-sheep BrdU (1:200, Interchim), anti-goat DCX (1:200, Santa Cruz Laboratories), or an anti-GFAP (Glial Fibrillary acidic protein, marker for astrocytes, 1:250, Dako). […] All BrdU-labeled cells in the granular cell layer and subgranular zone (SGZ) were counted in each section (n=10 and 5 mice per group) at 400× and 1000× magnification under a light microscope (Olympus) by an experimenter blinded to the study code. The total number of BrdU-positive cells per section was multiplied by 6 to obtain the total number of cells per dentate gyrus. The counting of BrdU/DCX labeled cells was performed using a Laser Scanning Confocal Microscope (TCS SP, Leica) equipped with a DMIRBE inverted microscope.

[3] = tested on: CREB; assay: pCREB immunostaining in hippocampal sections; type: in vivo, mouse; settings: 4 days, i.p. 10^-5 M, hippocampal SGZ
Protocol: Free floating sections were permeabilized in 0.1% Triton/PBS for 10 min and blocked with 3% goat serum/PBS for 2 hours at room temperature followed by a single wash in PBS. Sections were then incubated with the monoclonal anti-pCREB antibody (1:300, Cell Signaling Technology) overnight at 4° C. After three washes in PBS, sections were then incubated in biotinylated horse anti-rabbit IgG (Jackson ImmunoResearch, diluted 1:15000) for 2 hours at room temperature. pCREB expression was visualized by 3.3′-diaminobenzidine (DAB) staining using the VectaStain ABC kit (Biovalley). All sections were washed and mounted with Entellan. For BrdU/pCREB immunofluorescence staining, free floating sections of mice injected with BrdU were incubated with the primary antibodies, anti-rabbit pCREB (1:500, Cell Signaling Technology) and anti-mouse BrdU (1:40, Becton-Dickinson). After three washesin PBS, sections were then incubated in anti-IgGAlexa 488- or 594-coupled antibodies (Molecular Probes) for 1 h at room temperature. After drying sections in the dark boxes for 2 hours, they were mounted with Vectashield (Vector laboratories). Confocal microscopy observations were performed with the Laser Scanning Confocal Microscope (TCS SP, Leica) equipped with a DMIRBE inverted microscope, using a Plan Apo 63x/1,4 NA oil immersion objective.

[4] = target: T1, TREK-1 (Mus musculus, UniProt P97438); assay: Whole-cell patch-clamp of native currents on β-TC3 cell line; type: cell-based; set-up: expressed in transfected cells; host or cells: COS-7 (DEAE-dextran transfection); settings: 1 μM spadin; read-out: inhibition of endogenous TREK-1
T1 sequence (P97438 1-426): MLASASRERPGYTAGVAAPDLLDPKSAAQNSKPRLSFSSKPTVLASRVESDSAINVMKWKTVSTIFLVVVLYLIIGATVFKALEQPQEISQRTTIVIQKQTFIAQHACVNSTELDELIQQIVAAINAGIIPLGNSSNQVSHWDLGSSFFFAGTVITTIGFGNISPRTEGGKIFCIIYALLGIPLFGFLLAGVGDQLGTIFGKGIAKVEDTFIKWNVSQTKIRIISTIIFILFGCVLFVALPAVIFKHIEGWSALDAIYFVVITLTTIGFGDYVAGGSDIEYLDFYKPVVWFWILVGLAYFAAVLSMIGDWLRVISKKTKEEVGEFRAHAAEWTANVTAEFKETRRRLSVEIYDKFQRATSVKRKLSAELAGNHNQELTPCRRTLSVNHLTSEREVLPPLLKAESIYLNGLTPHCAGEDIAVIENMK
Protocol: Native currents elicited by these cells were recorded in the whole-cell configuration of the patch-clamp technique (as described for COS-7 cells) and in the presence of K^+ blockers.

[5] = target: T1, TREK-1; assay: Whole-cell patch-clamp on CA3 pyramidal neurons in hippocampus brain slices; type: cell-based; set-up: a cellular network that endogenously expresses both TREK-1 and NTSR3/Sortilin; from tissue; host or cells: mouse hippocampal brain slices, CA3 pyramidal neurons; settings: CA3 neurons of kcnk2-/- mice

APLPRWSGPIGVSWGLR [spadin] was tested, and the rearing/step numbers ratio [1] was “had no effect”, the “BrdU-labelled cells expressing DCX” value ([2]; 4-day treatment) was 85.2% and 85% and the “number of BrdU-positive cells in the SGZ versus saline” value ([2]; 4-day treatment, spadin i.p. 10^-5 M) was “significantly increased by two-fold”. For the same sequence, the “number of BrdU-positive cells versus saline” value ([2]; 15 days) was “maintained”, the “number of pCREB-labelled neurons versus saline” value [3] was “two-fold increase” and the inhibition at 1 µM [4] was 36%. The “inhibitory effect on arachidonic acid-induced current” value [5] was “totally absent”.
